Data as given in EP4660190A1, “PHARMACEUTICALLY ACCEPTABLE SALT OF COMPOUND AND PREPARATION METHOD THEREFOR” (Jiangsu Chia Tai Fenghai Pharmaceutical Co., Ltd., priority 2023, dated 2024).
Where two headings read alike, the source gives them in different places.

Tests used:
[1] = test system: TDP-43-A315T transgenic mice of ALS model; experiment: TDP-43-A315T ALS mice, muscle tone test; assay type: in vivo; conditions: 25 mg/kg p.o., Mean±SEM
[2] = test system: TDP-43-A315T transgenic mice of ALS model; experiment: TDP-43-A315T ALS mice, rotarod test; assay type: in vivo; conditions: 25 mg/kg p.o., Mean±SEM
[3] = test system: rat spinal cord injury model; experiment: Rat spinal cord injury model, Neurofilament 200 (NF200) expression; assay type: in vivo, Male SD rats; conditions: 180 mg/kg single iv, mean±SD, n=6
[4] = test system: rat spinal cord injury model; experiment: Rat spinal cord injury model, BBB locomotor scores; assay type: in vivo, Male SD rats; conditions: 180 mg/kg single iv, mean±SD
Source text: The scoring method is as follows: [table]

[5] = test system: rat spinal cord injury model; experiment: Rat spinal cord injury model, pathological changes; conditions: 180 mg/kg single iv; spinal cord histopathology
[6] = test system: MPTP-induced Parkinson's disease model mice; experiment: MPTP-induced mouse Parkinson's disease model, grip strength test; conditions: positive control 20 mg/kg group; Before Modeling; mean ± SD
[7] = test system: MPTP-induced Parkinson's disease model mice; experiment: MPTP-induced mouse Parkinson's disease model, pole test; assay type: in vivo, C57 mice; conditions: mean ± SD
[8] = test system: MPTP-induced Parkinson's disease model mice; experiment: MPTP-induced mouse Parkinson's disease model, TH-positive fiber content in the striatum; assay type: in vivo, C57 mice; conditions: positive control 20 mg/kg daily, four weeks, mean ± SD
[9] = test system: MPTP-induced Parkinson's disease model mice; experiment: MPTP-induced mouse Parkinson's disease model, TH-positive cell counts in the substantia nigra pars compacta; assay type: in vivo, C57 mice; conditions: positive control 20 mg/kg daily, four weeks, mean ± SD
[10] = test system: MPTP-induced Parkinson's disease model mice; experiment: MPTP-induced mouse Parkinson's disease model, striatal dopamine (DOPA) detection; assay type: in vivo, C57 mice; conditions: striatum; positive control 20 mg/kg daily, four weeks; mean ± SD

In the case of “(Z)-3-(1-hydroxybutenyl)benzofuran-2-one potassium salt [Example 4]”, the Appearance (0 h) was “White solid”, the Purity (0 h) was 99.41% and the Appearance (High Humidity 75%, 10 d) was “White solid”. The Purity (High Humidity 75%, 10 d) was 99.34%, the Appearance (High Humidity 92.5%, 10 d) was “White solid” and the Purity (High Humidity 92.5%, 10 d) was 99.47%. The Appearance (High temperature 40°C, 10 d) was “White solid”, the Purity (High temperature 40°C, 10 d) was 99.66% and the Appearance (High temperature 60°C, 10 d) was “White solid”. For the same compound, the Purity (High temperature 60°C, 10 d) was 99.58%, the Appearance (Light, 10 d) was “White solid” and the Purity (Light, 10 d) was 99.41%.

With `Nc1nc2ccc(OC(F)(F)F)cc2s1` [Riluzole, reference compound] the “Muscle Tone” value ([1]; female mice, animal age 6 weeks) was 145.2 ± 5.444 g, the “Muscle Tone” value ([1]; female mice, animal age 8 weeks) was 177.8 ± 9.836 g and the “Muscle Tone” value ([1]; female mice, animal age 10 weeks) was 133.6 ± 12.04 g. For the same compound, the “Muscle Tone” value ([1]; female mice, animal age 12 weeks) was 161.5 ± 3.666 g, the “Muscle Tone” value ([1]; female mice, animal age 13 weeks) was 146.4 ± 6.928 g and the “Muscle Tone” value ([1]; female mice, animal age 14 weeks) was 143.1 ± 9.165 g. For the same compound, the “Muscle Tone” value ([1]; female mice, animal age 16 weeks) was 149.0 ± 6.827 g, the “Muscle Tone” value ([1]; male mice, animal age 6 weeks) was 144.0 ± 10.127 g and the “Muscle Tone” value ([1]; male mice, animal age 8 weeks) was 152.4 ± 10.35 g. The “Muscle Tone” value ([1]; male mice, animal age 10 weeks) was 150.5 ± 14.46 g, the “Muscle Tone” value ([1]; male mice, animal age 12 weeks) was 145.4 ± 5.551 g and the “Muscle Tone” value ([1]; male mice, animal age 13 weeks) was 147.8 ± 1.650 g. For the same compound, the “Muscle Tone” value ([1]; male mice, animal age 14 weeks) was 129.2 ± 1.250 g, the “Rotarod performance” value ([2]; female mice, Dosing Schedule (weeks) 2) was 269.8 ± 5.164 s and the “Rotarod performance” value ([2]; female mice, Dosing Schedule (weeks) 4) was 258.8 ± 15.65 s. For the same compound, the “Rotarod performance” value ([2]; female mice, Dosing Schedule (weeks) 6) was 275.3 ± 9.266 s, the “Rotarod performance” value ([2]; female mice, Dosing Schedule (weeks) 8) was 272.3 ± 10.56 s and the “Rotarod performance” value ([2]; female mice, Dosing Schedule (weeks) 10) was 238.4 ± 16.32 s. For the same compound, the “Rotarod performance” value ([2]; female mice, Dosing Schedule (weeks) 12) was 252.3 ± 16.24 s, the “Rotarod performance” value ([2]; female mice, Dosing Schedule (weeks) 14) was 270.6 ± 12.70 s and the “Rotarod performance” value ([2]; female mice, Dosing Schedule (weeks) 16) was 255.9 ± 17.39 s. The “Rotarod performance” value ([2]; male mice, Dosing Schedule (weeks) 6) was 250.8 ± 12.71 s, the “Rotarod performance” value ([2]; male mice, Dosing Schedule (weeks) 8) was 236.4 ± 16.14 s and the “Rotarod performance” value ([2]; male mice, Dosing Schedule (weeks) 10) was 234.0 ± 10.64 s. The “Rotarod performance” value ([2]; male mice, Dosing Schedule (weeks) 11) was 215.6 ± 31.32 s, the “Rotarod performance” value ([2]; male mice, Dosing Schedule (weeks) 12) was 202.4 ± 41.22 s and the “Rotarod performance” value ([2]; male mice, Dosing Schedule (weeks) 13) was 135.32 ± 76.92 s.

In the case of `CCC/C(O)=C1/C(=O)Oc2ccccc21.[Mg]` [Example 5, (Z)-3-(1-hydroxybutylidene)benzofuran-2-one magnesium salt], the Appearance (0 h) was “White solid”, the Purity (0 h) was 99.67% and the Appearance (High Humidity 75%, 10 d) was “White solid”. For the same compound, the Purity (High Humidity 75%, 10 d) was 99.83%, the Appearance (High Humidity 92.5%, 10 d) was “White solid” and the Purity (High Humidity 92.5%, 10 d) was 99.79%. The Appearance (High temperature 40°C, 10 d) was “White solid”, the Purity (High temperature 40°C, 10 d) was 99.82% and the Appearance (High temperature 60°C, 10 d) was “White solid”. The Purity (High temperature 60°C, 10 d) was 99.58%, the Appearance (Light, 10 d) was “White solid” and the Purity (Light, 10 d) was 99.72%.

With “(Z)-3-(1-hydroxybutenyl)benzofuran-2-one meglumine salt [Example 9]” the Appearance (0 h) was “White solid”, the Purity (0 h) was 99.53% and the Appearance (High Humidity 75%, 10 d) was “White solid”. For the same compound, the Purity (High Humidity 75%, 10 d) was 99.01%, the Appearance (High Humidity 92.5%, 10 d) was “Yellow oily liquid” and the Purity (High Humidity 92.5%, 10 d) was 98.62%. The Appearance (High temperature 40°C, 10 d) was “White solid”, the Purity (High temperature 40°C, 10 d) was 99.45% and the Appearance (High temperature 60°C, 10 d) was “White solid”. The Purity (High temperature 60°C, 10 d) was 98.04%, the Appearance (Light, 10 d) was “White solid” and the Purity (Light, 10 d) was 99.60%.

For `CC/C=C(\O)C1C(=O)Oc2ccccc21.[Ca]` (centres unmarked) [Example 6, (Z)-3-(1-hydroxybutenyl)benzofuran-2-one calcium salt], the Appearance (0 h) was “White solid”, the Purity (0 h) was 99.42% and the Appearance (High Humidity 75%, 10 d) was “White solid”. For the same compound, the Purity (High Humidity 75%, 10 d) was 99.56%, the Appearance (High Humidity 92.5%, 10 d) was “White solid” and the Purity (High Humidity 92.5%, 10 d) was 99.44%. The Appearance (High temperature 40°C, 10 d) was “White solid”, the Purity (High temperature 40°C, 10 d) was 99.58% and the Appearance (High temperature 60°C, 10 d) was “White solid”. The Purity (High temperature 60°C, 10 d) was 99.68%, the Appearance (Light, 10 d) was “White solid” and the Purity (Light, 10 d) was 99.43%.

With “(Z)-3-(1-hydroxybutenyl)benzofuran-2-one sodium salt [Example 2]” the “Impurities RRT1.41” value (0 h) was 0.10, the “Impurities RRT1.47” value (0 h) was 0.11 and the “Impurities Total impurities” value (0 h) was 0.21. For the same compound, the “Impurities RRT1.41” value (High Humidity 75%, 10 d) was 0.12, the “Impurities RRT1.47” value (High Humidity 75%, 10 d) was 0.10 and the “Impurities Total impurities” value (High Humidity 75%, 10 d) was 0.22. The “Impurities RRT1.41” value (High temperature 60°C, 10 d) was 0.14, the “Impurities RRT1.47” value (High temperature 60°C, 10 d) was 0.09 and the “Impurities Total impurities” value (High temperature 60°C, 10 d) was 0.23. For the same compound, the “Impurities RRT1.41” value (Light, 10 d) was 0.07, the “Impurities RRT1.47” value (Light, 10 d) was 0.09 and the “Impurities Total impurities” value (Light, 10 d) was 0.16.

In the case of `CCC/C(O)=C1/C(=O)Oc2ccccc21.NCCO` [Example 8], the Appearance (0 h) was “White solid”, the Purity (0 h) was 99.19% and the Appearance (High Humidity 75%, 10 d) was “White solid”. For the same compound, the Purity (High Humidity 75%, 10 d) was 99.71%, the Appearance (High Humidity 92.5%, 10 d) was “White solid” and the Purity (High Humidity 92.5%, 10 d) was 99.79%. For the same compound, the Appearance (High temperature 40°C, 10 d) was “White solid”, the Purity (High temperature 40°C, 10 d) was 99.75% and the Appearance (High temperature 60°C, 10 d) was “White solid”. For the same compound, the Purity (High temperature 60°C, 10 d) was 99.75%, the Appearance (Light, 10 d) was “White solid” and the Purity (Light, 10 d) was 99.78%.

In the case of `C[C@H]1C[C@@H]2[C@H]([C@@H](O)C[C@@]3(C)[C@H]2CC[C@]3(O)C(=O)COC(=O)CCC(=O)O)[C@@]2(C)C=CC(=O)C=C12` [methylprednisolone succinate], the “Positive Count (number per field of view)” value [3] was 22.2± 6.3 number per field of view, the “BBB Locomotor Scores” value ([4]; 3 d after dosing) was 0.1± 0.3 and the “BBB Locomotor Scores” value ([4]; 7 d after dosing) was 2.8± 1.9. The “BBB Locomotor Scores” value ([4]; 14 d after dosing) was 5.7±4.5, the “BBB Locomotor Scores” value ([4]; 28 d after dosing) was 7.9±3.4 and the “BBB Locomotor Scores” value ([4]; Before dosing) was 0± 0. For the same compound, the “cases showing a reduction in lesions” value [5] was 3 out of 6.

With `N[C@@H](Cc1ccc(O)c(O)c1)C(=O)O` [Levodopa, reference compound] the “Grip Strength Test” value [6] was 272.61 ± 9.01 g, the “Pole test results” value ([7]; positive control 20 mg/kg daily, four weeks, Study Endpoint) was 8.76 ± 1.57 s and the “Pole test results” value ([7]; positive control 20 mg/kg group, Before Modeling) was 9.40 ± 1.62 s. For the same compound, the “TH-Positive Fiber Content” value [8] was 536968.78±68050.46^&, the “TH-Positive Fiber Content” value ([8]; listed as levodopa) was 536,968.78±68,050.46 and the “TH-Positive Cell counts” value [9] was 31.50±4.14^&. The DOPA [10] was 1156.72±375.72^& ng/g.

For “(Z)-3-(1-hydroxybutylidene)benzofuran-2-one piperazine salt [Example 7]”, the Appearance (0 h) was “Light yellow solid”, the Purity (0 h) was 99.59% and the Appearance (High Humidity 75%, 10 d) was “Light yellow solid”. For the same compound, the Purity (High Humidity 75%, 10 d) was 99.66%, the Appearance (High Humidity 92.5%, 10 d) was “Light yellow solid” and the Purity (High Humidity 92.5%, 10 d) was 99.54%. For the same compound, the Appearance (High temperature 40°C, 10 d) was “Light yellow solid”, the Purity (High temperature 40°C, 10 d) was 99.67% and the Appearance (High temperature 60°C, 10 d) was “Light yellow solid”. The Purity (High temperature 60°C, 10 d) was 99.72%, the Appearance (Light, 10 d) was “Light yellow solid” and the Purity (Light, 10 d) was 99.43%.
